# In patent US12257237B2 (priority 2017, dated 2025):
# “And” between values parts separate entries of the source, which are not always exact repeats. Equal entries are not always repeated.
# System: TC-71 Ewing sarcoma
# Test: Antitumour activity in TC-71 Ewing sarcoma xenograft model
# Format: in vivo, Athymic nude mice
# Conditions: for optimal T/C: day 21; for mice still in CR at the end of the experiment: after second cycle
# Protocol: Experiments were performed with female Athymic nude mice, 9-10 weeks old obtained from Harlan Laboratories (Udine, Italy). They were maintained under Specific Pathogen Free conditions with constant temperature and humidity, according to the institutional guidelines.
# Tumour growth mice was monitored two/three times a week (depending on tumour growth rate, to avoid unnecessary stress to the animals) by Vernier caliper. Mice were sacrificed when tumour reached a mean weight of 2±0.5 gr. The antitumour activity will be expressed as T/C %, where T and C were the mean tumour weight of treated and control groups, respectively. Mice were monitored daily and weighted at least two times a week. Tolerability was evaluated on the basis of body weight loss (BWL) and clinical observation.
# Statistical analysis was performed with GraphPad Prism version 6.01 software (GraphPad software, Inc., La Jolla, CA, USA). ANOVA test was performed to evaluate if there were statistically significant differences between treated and control groups.
# 5×10^6 TC-71 cells were inoculated subcutaneously in the right flank of mice. The growing tumour masses were measured with the aid of a Vernier caliper, and the tumour weights (1 mm^3=1 mg) were calculated by the formula: length×(width) 2/2. When tumour load achieved about 100 mg, mice were randomized into the experimental groups and treatment started.
# [1] = EDO80: 80 mg/kg i.v. single dose, day 9 from inoculum
# [2] = EDO80: 80 mg/kg i.v. single dose, day 11 from inoculum
# [3] = EDO80: 80 mg/kg i.v. single dose, day 14 from inoculum
# [4] = EDO80: 80 mg/kg i.v. single dose, day 16 from inoculum
# [5] = EDO80: 80 mg/kg i.v. single dose, day 18 from inoculum
# [6] = EDO80: 80 mg/kg i.v. single dose, day 21 from inoculum
# [7] = EDO80: 80 mg/kg i.v. single dose, day 23 from inoculum
# [8] = EDO80: 80 mg/kg i.v. single dose, day 25 from inoculum
# [9] = EDO80: 80 mg/kg i.v. single dose, day 28 from inoculum
# [10] = EDO80: 80 mg/kg i.v. single dose, day 30 from inoculum
# [11] = EDO80: 80 mg/kg i.v. single dose, day 32 from inoculum
# [12] = EDO80: 80 mg/kg i.v. single dose, day 35 from inoculum
# [13] = EDO80: 80 mg/kg i.v. single dose, day 38 from inoculum
# [14] = EDO80: 80 mg/kg i.v. single dose, day 42 from inoculum
# [15] = EDO80: 80 mg/kg i.v. single dose, day 45 from inoculum
# [16] = EDO80: 80 mg/kg i.v. single dose, day 49 from inoculum
compound,measurement,setting,value
"Cn1c(CCCCCCC(=O)NO)nc2cc(N(CCCl)CCCl)ccc21 [EDO-S101, 7-(5-(bis(2-chloroethyl)amino)-1-methyl-1H-benzo[d]imidazol-2-yl)-N-hydroxyheptanamide]",optimal T/C,40 mg/kg i.v. q7dx3,24%
same,tumour regression,40 mg/kg q7dx3,no tumour regression in tumour volume was observed
same,effect of a second cycle of treatments on tumour re-growth,60 mg/kg,further delayed tumour re-growth without being able to arrest it
same,complete regressions (CR),60 mg/kg group,3 out of 8
same,tumour regression,60 mg/kg group,sustained tumour regressions in all of the treated mice
same,mice still in CR at the end of the experiment,60 mg/kg group,two
same,optimal T/C,60 mg/kg i.v. q7dx3,1%
same,effect of a second cycle of treatments on tumour re-growth,80 mg/kg,further delayed tumour re-growth without being able to arrest it
same,complete regressions (CR),80 mg/kg group,4 out of 8
same,tumour regression,80 mg/kg group,sustained tumour regressions in all of the treated mice
same,mice still in CR at the end of the experiment,80 mg/kg group,one
same,optimal T/C,80 mg/kg i.v. single dose,0.5%
same,"TC-71 tumour weight, mean","EDO40: 40 mg/kg i.v. q7dx3, day 9 from inoculum",103.5 mg
same,"TC-71 tumour weight, mean","EDO40: 40 mg/kg i.v. q7dx3, day 11 from inoculum",180.4 mg
same,"TC-71 tumour weight, mean","EDO40: 40 mg/kg i.v. q7dx3, day 14 from inoculum",180.6 mg
same,"TC-71 tumour weight, mean","EDO40: 40 mg/kg i.v. q7dx3, day 16 from inoculum",236.4 mg
same,"TC-71 tumour weight, mean","EDO40: 40 mg/kg i.v. q7dx3, day 18 from inoculum",319.3 mg
same,"TC-71 tumour weight, mean","EDO40: 40 mg/kg i.v. q7dx3, day 21 from inoculum",348.4 mg
same,"TC-71 tumour weight, mean","EDO40: 40 mg/kg i.v. q7dx3, day 23 from inoculum",514.5 mg
same,"TC-71 tumour weight, mean","EDO40: 40 mg/kg i.v. q7dx3, day 25 from inoculum",548.0 mg
same,"TC-71 tumour weight, mean","EDO40: 40 mg/kg i.v. q7dx3, day 28 from inoculum",733.8 mg
same,"TC-71 tumour weight, mean","EDO40: 40 mg/kg i.v. q7dx3, day 30 from inoculum",1055.5 mg
same,"TC-71 tumour weight, mean","EDO40: 40 mg/kg i.v. q7dx3, day 32 from inoculum",1376.1 mg
same,"TC-71 tumour weight, mean","EDO60: 60 mg/kg i.v. q7dx3, day 9 from inoculum",106.1 mg
same,"TC-71 tumour weight, mean","EDO60: 60 mg/kg i.v. q7dx3, day 11 from inoculum",130.4 mg
same,"TC-71 tumour weight, mean","EDO60: 60 mg/kg i.v. q7dx3, day 14 from inoculum",76.1 mg
same,"TC-71 tumour weight, mean","EDO60: 60 mg/kg i.v. q7dx3, day 16 from inoculum",39.2 mg
same,"TC-71 tumour weight, mean","EDO60: 60 mg/kg i.v. q7dx3, day 18 from inoculum",24.2 mg
same,"TC-71 tumour weight, mean","EDO60: 60 mg/kg i.v. q7dx3, day 21 from inoculum",14.1 mg
same,"TC-71 tumour weight, mean","EDO60: 60 mg/kg i.v. q7dx3, day 23 from inoculum",19.1 mg
same,"TC-71 tumour weight, mean","EDO60: 60 mg/kg i.v. q7dx3, day 25 from inoculum",23.2 mg
same,"TC-71 tumour weight, mean","EDO60: 60 mg/kg i.v. q7dx3, day 28 from inoculum",22.9 mg
same,"TC-71 tumour weight, mean","EDO60: 60 mg/kg i.v. q7dx3, day 30 from inoculum",43.7 mg
same,"TC-71 tumour weight, mean","EDO60: 60 mg/kg i.v. q7dx3, day 32 from inoculum",119.4 mg
same,"TC-71 tumour weight, mean","EDO60: 60 mg/kg i.v. q7dx3, day 35 from inoculum",155.1 mg
same,"TC-71 tumour weight, mean","EDO60: 60 mg/kg i.v. q7dx3, day 38 from inoculum",205.8 mg
same,"TC-71 tumour weight, mean","EDO60: 60 mg/kg i.v. q7dx3, day 42 from inoculum",396.7 mg
same,"TC-71 tumour weight, mean","EDO60: 60 mg/kg i.v. q7dx3, day 45 from inoculum",601.3 mg
same,"TC-71 tumour weight, mean","EDO60: 60 mg/kg i.v. q7dx3, day 49 from inoculum",642.0 mg
same,"TC-71 tumour weight, mean","EDO60: 60 mg/kg i.v. q7dx3, day 53 from inoculum",906.2 mg
same,"TC-71 tumour weight, mean","EDO60: 60 mg/kg i.v. q7dx3, day 56 from inoculum",1549.1 mg
same,"TC-71 tumour weight, individual mice",[1],222.4 mg and 133.9 mg and 113.7 mg and 97.0 mg and 83.4 mg and 80.5 mg and 57.3 mg and 45.5 mg
same,"TC-71 tumour weight, mean",[1],104.2 mg
same,"TC-71 tumour weight, individual mice",[2],369.7 mg and 200.9 mg and 133.4 mg and 118.7 mg and 55.8 mg and 65.3 mg and 49.8 mg and 45.0 mg
same,"TC-71 tumour weight, mean",[2],129.8 mg
same,"TC-71 tumour weight, individual mice",[3],209.5 mg and 68.4 mg and 34.6 mg and 32.5 mg and 24.2 mg and 15.6 mg and 17.0 mg
same,"TC-71 tumour weight, mean",[3],51.7 mg
same,"TC-71 tumour weight, individual mice",[4],124.6 mg and 34.0 mg and 11.8 mg and 8.0 mg and 5.9 mg and 3.2 mg and 6.8 mg
same,"TC-71 tumour weight, mean",[4],25.6 mg
same,"TC-71 tumour weight, individual mice",[5],68.6 mg and 8.3 mg and 7.4 mg and 3.1 mg and 4.3 mg and 7.1 mg and 2.3 mg and 4.9 mg
same,"TC-71 tumour weight, mean",[5],13.2 mg
same,"TC-71 tumour weight, individual mice",[6],23.4 mg and 3.4 mg and 5.3 mg and 1.0 mg and 2.5 mg and 5.4 mg
same,"TC-71 tumour weight, mean",[6],7.3 mg
same,"TC-71 tumour weight, individual mice",[7],16.8 mg and 2.1 mg and 8.6 mg and 35.1 mg and 2.4 mg and 1.2 mg
same,"TC-71 tumour weight, mean",[7],11.0 mg
same,"TC-71 tumour weight, individual mice",[8],38.4 mg and 3.8 mg and 14.0 mg and 74.0 mg and 4.1 mg
same,"TC-71 tumour weight, mean",[8],26.9 mg
same,"TC-71 tumour weight, individual mice",[9],117.5 mg and 4.1 mg and 59.4 mg and 203.9 mg
same,"TC-71 tumour weight, mean",[9],65.7 mg
same,"TC-71 tumour weight, individual mice",[10],220.0 mg and 18.1 mg and 185.0 mg and 415.0 mg and 12.8 mg
same,"TC-71 tumour weight, mean",[10],126.3 mg
same,"TC-71 tumour weight, individual mice",[11],340.2 mg and 64.8 mg and 238.3 mg and 594.3 mg and 37.0 mg
same,"TC-71 tumour weight, mean",[11],199.8 mg
same,"TC-71 tumour weight, individual mice",[12],319.1 mg and 49.1 mg and 343.5 mg and 692.9 mg and 34.3 mg
same,"TC-71 tumour weight, mean",[12],225.9 mg
same,"TC-71 tumour weight, individual mice",[13],239.8 mg and 32.6 mg and 310.8 mg and 670.0 mg and 56.6 mg
same,"TC-71 tumour weight, mean",[13],204.0 mg
same,"TC-71 tumour weight, individual mice",[14],598.5 mg and 77.8 mg and 1030.8 mg and 1865.6 mg and 237.5 mg
same,"TC-71 tumour weight, mean",[14],601.9 mg
same,"TC-71 tumour weight, individual mice",[15],790.9 mg and 209.0 mg and 1741.1 mg and 2763.5 mg and 370.1 mg
same,"TC-71 tumour weight, mean",[15],944.7 mg
same,"TC-71 tumour weight, individual mice",[16],1094.7 mg and 481.3 mg and 3462.7 mg and 4619.8 mg
same,"TC-71 tumour weight, mean",[16],1657.1 mg
